We go through 1 compound from US12044651B2, “Sensor device and methods” (SCENTIAN BIO LIMITED, priority 2016, dated 2024).

Test [1] in a line: QCM-D control with empty liposomes (Example 6). Particulars: empty liposomes immobilised on the QCM. On the procedure:
Gold (100 nm) sensor crystals were sonicated in ethanol and milli-Q water for 15 minutes each respectively. A 5:1:1 volume ratio of milli-Q water, ammonia (25%), and hydrogen peroxide (30%) was heated to 75° C. for 5 minutes and the sonicated crystals were placed in the heated solution for 5 minutes. Then the crystals were removed from the solution and rinsed with milli-Q water before drying with nitrogen gas. The clean gold crystals were thiol-functionalized by exposing them to 2 mM ethanolic solution of MHA overnight followed by washing with ethanol solution in order to remove excess or loosely bound molecules. The SAM functionalized crystals were then placed into the Q-sense analyser instrument (Biolin Scientific) chamber and flowed with the NHS/EDC, OR22a/liposomes and various concentrations of methyl hexanoate (1.6 μM, 8 μM, 40 μM, 200 μM and 1 mM) in PBS buffer solution to measure the changes in frequency (Δf) and dissipation (ΔD) values.

In test [2] the target is T1, Or22a (Drosophila melanogaster, UniProt P81909).
T1 sequence (P81909 1-397): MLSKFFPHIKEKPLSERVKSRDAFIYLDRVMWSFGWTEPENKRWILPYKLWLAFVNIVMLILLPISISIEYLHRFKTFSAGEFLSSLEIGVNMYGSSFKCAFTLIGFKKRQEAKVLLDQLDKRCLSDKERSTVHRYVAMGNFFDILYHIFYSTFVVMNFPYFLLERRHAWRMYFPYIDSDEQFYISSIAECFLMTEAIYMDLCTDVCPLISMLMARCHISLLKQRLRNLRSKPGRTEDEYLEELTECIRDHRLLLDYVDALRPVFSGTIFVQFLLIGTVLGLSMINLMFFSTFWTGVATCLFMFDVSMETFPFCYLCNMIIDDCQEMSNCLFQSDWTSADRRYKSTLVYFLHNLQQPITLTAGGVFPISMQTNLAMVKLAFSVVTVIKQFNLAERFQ
Kind of test: QCM-D sensor with Or22a liposomes (Example 6). It counts as binding. To be noted: 1.6 to 200 μM. On the procedure:
Gold (100 nm) sensor crystals were sonicated in ethanol and milli-Q water for 15 minutes each respectively. A 5:1:1 volume ratio of milli-Q water, ammonia (25%), and hydrogen peroxide (30%) was heated to 75° C. for 5 minutes and the sonicated crystals were placed in the heated solution for 5 minutes. Then the crystals were removed from the solution and rinsed with milli-Q water before drying with nitrogen gas. The clean gold crystals were thiol-functionalized by exposing them to 2 mM ethanolic solution of MHA overnight followed by washing with ethanol solution in order to remove excess or loosely bound molecules.

Test [3] concerns the target T1, Or22a. Kind of test: CNT-FET sensor covalently functionalized with Or22a nanodiscs (Example 3). It counts as binding. On the procedure:
The dispersion was sonicated until a clear solution was obtained. The temperature was kept at 25° C. throughout the sonication process. The thiolpyridine solution was prepared by dissolving 10 mg of 2-Mercaptopyridine (99%, Sigma Aldrich) in 1 ml of methanol. The solution was spun coated on a polydimethylsiloxane (PDMS) surface at 2000 rpm for one minute. Before the spin coating process, the PDMS surface was cleaned by a 50 W Oxygen plasma for 1 minute to improve the wettability. The cleaned substrates were placed upside down on the PDMS surface for three minutes and washed in ethanol to remove the excess thiolpyridine molecules. Then the substrates were transferred into the CNT suspension and immersed into the suspension for 10 minutes. The samples were removed from the suspension and dipped into Ethanol for another 10 minutes to remove the thiolpyridine molecules in the SWNT network. The alignment markers were deposited by defining the markers by photolithography and thermal evaporation of 5 nm Chromium and 50 nm of Gold. The metal Lift off was done by acetone immersion for 15 minutes followed by an Isopropyl alcohol (IPA) wash and N2 blow dry. The result is a uniform thin film CNT network covering the entire substrate surface. The purification procedure is a variation on the one detailed in […] et al. 2013^14. […] Purity was assessed on Coomassie stained SDS-PAGE gels and Western blotting. […]

As to `CCCCCC(=O)OC` [methyl hexanoate], the “increase in oscillation frequency” value in test [1] is reported as “not observed”. Also, the “change in oscillation frequency” value at Or22a [2] was “increase in the frequency”. The limit of detection entry at Or22a [3] (nanodiscs 1:100 dilution) is “below 1 fM”. In addition, the “concentration at which clear electronic response starts” value on Or22a [3] (real time current measurement mode) worked out at 1 fM.
